Laboratory results reported in patent US20110230472A1, “RING-FUSED AZOLE DERIVATIVE HAVING PI3K-INHIBITING ACTIVITY” (Shionogi & Co., Ltd., priority 2008, published 2011).

Experiments:
CYP2C19 = biological target: T1, CYP2C19 (Homo sapiens, UniProt P33261); assay: CYP inhibition test, pooled human liver microsome, CYP2C19; assay type: in vitro ADME; conditions: 4′-hydroxylation of mephenyloin
T1 construct: enzyme: pooled human liver microsome 0.2 mg protein/mL; from tissue; host or cells: pooled human liver microsome
T1 sequence (P33261 whole entry): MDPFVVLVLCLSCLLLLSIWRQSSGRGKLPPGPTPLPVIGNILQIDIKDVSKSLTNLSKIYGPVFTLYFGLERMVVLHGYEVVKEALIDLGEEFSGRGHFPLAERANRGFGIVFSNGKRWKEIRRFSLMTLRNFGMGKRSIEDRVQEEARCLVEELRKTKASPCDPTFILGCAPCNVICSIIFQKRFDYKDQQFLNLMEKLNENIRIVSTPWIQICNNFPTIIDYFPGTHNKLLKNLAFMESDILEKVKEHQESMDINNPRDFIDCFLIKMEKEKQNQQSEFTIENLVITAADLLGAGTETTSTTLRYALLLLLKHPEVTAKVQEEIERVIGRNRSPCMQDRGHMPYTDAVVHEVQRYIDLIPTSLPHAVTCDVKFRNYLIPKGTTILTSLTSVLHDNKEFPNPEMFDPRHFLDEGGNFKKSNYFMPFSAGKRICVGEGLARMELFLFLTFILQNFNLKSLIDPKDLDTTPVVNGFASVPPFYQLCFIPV

CYP3A4 = biological target: T2, CYP3A4 (Homo sapiens, UniProt P08684); assay: CYP inhibition test, pooled human liver microsome, CYP3A4; assay type: in vitro ADME; conditions: hydroxylation of terfenadine
T2 construct: enzyme: pooled human liver microsome 0.2 mg protein/mL; from tissue; host or cells: pooled human liver microsome
T2 sequence (P08684 whole entry): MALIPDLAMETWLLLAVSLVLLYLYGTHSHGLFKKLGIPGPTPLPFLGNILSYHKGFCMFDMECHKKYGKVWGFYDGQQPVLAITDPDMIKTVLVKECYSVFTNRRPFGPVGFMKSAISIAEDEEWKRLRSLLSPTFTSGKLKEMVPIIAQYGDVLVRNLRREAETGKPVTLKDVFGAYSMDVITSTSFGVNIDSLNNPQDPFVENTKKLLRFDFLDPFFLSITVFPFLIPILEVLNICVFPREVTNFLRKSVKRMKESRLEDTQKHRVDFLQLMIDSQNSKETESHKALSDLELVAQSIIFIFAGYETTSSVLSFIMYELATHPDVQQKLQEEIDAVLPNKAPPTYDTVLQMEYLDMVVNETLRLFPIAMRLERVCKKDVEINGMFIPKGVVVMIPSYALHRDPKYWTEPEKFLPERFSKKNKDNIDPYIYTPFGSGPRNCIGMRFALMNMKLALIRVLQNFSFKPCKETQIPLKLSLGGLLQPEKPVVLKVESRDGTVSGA
Method in brief: (§1)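 Pooled human liver microsomes (0.2 mg protein/mL) in 50 mmol/L Hepes with NADPH, 15 min at 37° C; test drug at 1, 5, 10, 20 μmol/L. Substrates: 0.5 μmol/L ethoxyresorufin (1A2, resorufin by fluorescence), 100 μmol/L tolbutamide (2C9), 5 μmol/L dextromethorphan (2D6), 1 μmol/L terfenadine (3A4), metabolites by LC/MS/MS. IC50 from remaining activity vs DMSO control, logistic model.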

CYP1A2 = biological target: T3, CYP1A2 (Homo sapiens, UniProt P05177); assay: CYP inhibition test, pooled human liver microsome, CYP1A2; assay type: in vitro ADME; conditions: O-de-ethylation of 7-ethoxyresorufin
T3 construct: enzyme: pooled human liver microsome 0.2 mg protein/mL; from tissue; host or cells: pooled human liver microsome
T3 sequence (P05177 1-516): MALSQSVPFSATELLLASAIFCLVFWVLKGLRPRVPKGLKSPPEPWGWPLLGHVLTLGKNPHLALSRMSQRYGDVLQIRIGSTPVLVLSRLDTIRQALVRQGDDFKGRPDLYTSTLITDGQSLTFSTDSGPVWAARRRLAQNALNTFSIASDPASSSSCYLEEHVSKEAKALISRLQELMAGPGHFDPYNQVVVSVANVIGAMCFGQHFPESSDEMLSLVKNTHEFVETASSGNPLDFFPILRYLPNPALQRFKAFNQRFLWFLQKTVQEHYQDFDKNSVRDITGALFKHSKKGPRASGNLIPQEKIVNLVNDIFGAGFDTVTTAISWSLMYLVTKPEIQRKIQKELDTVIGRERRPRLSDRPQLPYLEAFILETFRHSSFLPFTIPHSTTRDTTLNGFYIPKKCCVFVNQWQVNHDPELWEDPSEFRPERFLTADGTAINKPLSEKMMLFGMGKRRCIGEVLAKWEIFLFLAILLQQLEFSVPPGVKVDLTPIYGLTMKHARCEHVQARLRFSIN
Method in brief: as §1

CYP2C9 = biological target: T4, CYP2C9 (Homo sapiens, UniProt P11712); assay: CYP inhibition test, pooled human liver microsome, CYP2C9; assay type: in vitro ADME; conditions: methyl-hydroxylation of tolbutamide
T4 construct: enzyme: pooled human liver microsome 0.2 mg protein/mL; from tissue; host or cells: pooled human liver microsome
T4 sequence (P11712 whole entry): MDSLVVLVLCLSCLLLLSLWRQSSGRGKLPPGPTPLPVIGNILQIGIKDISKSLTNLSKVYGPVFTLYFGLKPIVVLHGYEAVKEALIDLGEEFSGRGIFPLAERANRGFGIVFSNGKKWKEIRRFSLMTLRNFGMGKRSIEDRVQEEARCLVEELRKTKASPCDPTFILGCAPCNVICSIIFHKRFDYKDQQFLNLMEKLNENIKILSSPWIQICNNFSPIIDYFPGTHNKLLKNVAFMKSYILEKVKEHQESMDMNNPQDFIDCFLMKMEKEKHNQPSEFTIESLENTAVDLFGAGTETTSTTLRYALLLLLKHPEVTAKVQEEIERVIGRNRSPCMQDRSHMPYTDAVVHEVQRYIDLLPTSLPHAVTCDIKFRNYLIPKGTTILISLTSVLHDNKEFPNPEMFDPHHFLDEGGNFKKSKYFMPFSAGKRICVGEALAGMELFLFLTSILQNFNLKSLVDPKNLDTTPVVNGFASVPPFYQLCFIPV
Method in brief: as §1

[1] = biological target: T5, human ether-a-go-go related gene (hERG) channel (Homo sapiens, UniProt Q12809); assay: hERG test, whole-cell patch-clamp; assay type: cell-based; conditions: HEK293 cell expressing hERG; applied for 10 minutes; concentration not given
T5 construct: expressed in transfected cells; host or cells: HEK293
T5 sequence (Q12809 whole entry): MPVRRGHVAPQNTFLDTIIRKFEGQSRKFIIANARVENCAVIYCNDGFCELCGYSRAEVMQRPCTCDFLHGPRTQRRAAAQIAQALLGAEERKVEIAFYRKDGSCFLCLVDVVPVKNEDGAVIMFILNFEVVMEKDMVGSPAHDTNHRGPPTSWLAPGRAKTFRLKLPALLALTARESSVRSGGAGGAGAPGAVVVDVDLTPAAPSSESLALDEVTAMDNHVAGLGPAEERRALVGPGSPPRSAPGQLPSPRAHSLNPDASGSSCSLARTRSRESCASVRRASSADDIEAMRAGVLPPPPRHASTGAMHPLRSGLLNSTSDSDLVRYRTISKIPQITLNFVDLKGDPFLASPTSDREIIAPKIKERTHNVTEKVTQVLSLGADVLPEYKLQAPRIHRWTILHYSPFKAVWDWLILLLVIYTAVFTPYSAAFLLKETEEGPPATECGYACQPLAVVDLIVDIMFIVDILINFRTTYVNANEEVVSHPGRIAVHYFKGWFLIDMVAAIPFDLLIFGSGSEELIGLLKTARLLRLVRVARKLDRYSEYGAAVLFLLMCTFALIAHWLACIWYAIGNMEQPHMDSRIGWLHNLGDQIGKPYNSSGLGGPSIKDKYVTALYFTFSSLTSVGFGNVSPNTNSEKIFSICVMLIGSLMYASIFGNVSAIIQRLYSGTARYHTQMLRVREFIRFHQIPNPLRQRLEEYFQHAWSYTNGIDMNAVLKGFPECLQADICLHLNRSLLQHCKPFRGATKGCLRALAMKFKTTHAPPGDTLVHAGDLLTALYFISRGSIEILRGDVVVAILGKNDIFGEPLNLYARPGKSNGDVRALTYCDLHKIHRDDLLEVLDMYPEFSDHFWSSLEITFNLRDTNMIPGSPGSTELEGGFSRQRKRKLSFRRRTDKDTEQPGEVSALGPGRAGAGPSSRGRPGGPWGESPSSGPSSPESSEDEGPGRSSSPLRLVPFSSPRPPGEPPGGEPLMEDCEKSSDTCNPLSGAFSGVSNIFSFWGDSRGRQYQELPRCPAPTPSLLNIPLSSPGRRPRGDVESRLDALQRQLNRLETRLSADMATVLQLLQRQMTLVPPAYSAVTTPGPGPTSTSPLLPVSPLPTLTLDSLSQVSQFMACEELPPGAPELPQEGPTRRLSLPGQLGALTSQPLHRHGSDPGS
From the text: For the purpose of risk evaluation of QT interval extension of electrocardiogram, the activity on delayed rectification K^+ current (IKr), which plays an important role in a cardiac ventricle repolarization process, was examined using the HEK293 cell that was made to express human ether-a-go-go related gene (hERG) channel.
Using an automatic patch-clamp system (PatchXpress 7000A, Axon Instruments Inc.), by a whole-cell patch-clamp method, after the cell was maintained at a membrane potential of −80 mV, IKr induced upon applying depolarizing stimulation of +50 mV for 2 seconds and further applying repolarizing stimulation of −50 mV for 2 seconds was recorded. After generated electric current became stable, a test substance dissolved at an intended concentration in extracellular fluid (137 mmol/L NaCl, 4 mmol/L KCl, 1.8 mmol/L CaCl2.2H2O, 1 mmol/L MgCl2.6H2O, 10 mmol/L glucose, 10 mmol/L HEPES (4-(2-hydroxyethyl)-1-piperazineethanesulfonic acid), pH=7.4) was applied to the cell for 10 minutes under room temperature condition. From the obtained IKr, the absolute value of the maximum tail current was measured using analysis software (DataXpress ver. 1, Molecular Devices Corporation) and the value of the electric current in a maintained membrane potential as baseline. Moreover, an inhibition ratio for the maximum tail current prior to the application of the test substance was calculated and then compared with a group of media-application (0.1% dimethylsulfoxide solution) to evaluate influence of the test substance on IKr.

Solubility test = assay type: physicochemical; conditions: kinetic from dmso stock; artificial intestinal juice pH 6.8, 1% DMSO, 25° C. for 16 hours
Method in brief: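 Kinetic solubility with 1% DMSO: compound from 10 mmol/L DMSO stock spiked into pH 6.8 phosphate artificial intestinal juice, held 16 h at 25 °C, then suction-filtered. Filtrate diluted twofold in methanol/water (1/1) and quantified by HPLC or LC/MS/MS via absolute calibration.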

IC50 (CYP2C19) [µM] | IC50 (CYP3A4) [µM] | IC50 (CYP1A2) [µM] | IC50 (CYP2C9) [µM] | solubility at 16 h (Solubility test) [µM] | SMILES | inhibition ratio for the maximum tail current (IKr) [1] [%]
> 20 | > 20 | > 20 | > 20 | > 50 | CNC(=O)Nc1nc2c(s1)CN(c1cc(Cl)nc(N)n1)CC2 [Compound I-118] | 8.4
> 20 | > 20 | > 20 | > 20 | > 50 | CNC(=O)Nc1cc2n(n1)CCN2c1cc(C(=O)N2CCOCC2)cc(-c2ccc(N)nc2)c1 [Compound I-200] | 7.3
> 20 | > 20 | > 20 | > 20 | > 50 | COc1cc(N2CCc3nc(NC(=O)NCC(=O)O)sc3C2)nc(OC)n1 [Compound I-208] | 2.7
> 20 | > 20 | > 20 | > 20 |  | COc1cc(N2CCc3nc(NC(=O)NCc4cc(=O)[nH]o4)sc3C2)nc(OC)n1 [Compound I-279] | 5

Continued, compound first:

SMILES | IC50 (CYP2C19) [µM] | IC50 (CYP3A4) [µM] | IC50 (CYP1A2) [µM] | IC50 (CYP2C9) [µM] | solubility at 16 h (Solubility test) [µM] | inhibition ratio for the maximum tail current (IKr) [1] [%]
CNC(=O)Nc1cc2n(n1)CCN2c1ccc(S(C)(=O)=O)cc1 [Compound I-89] | > 20 | > 20 | > 20 | > 20 |  | < 0.5
CNC(=O)Nc1nc2c(s1)CN(c1ccnc(OC)n1)CC2 [Compound I-142] | > 20 | > 20 | > 20 | > 20 | > 50 | 
CN1CCc2cc(N3CCn4nc(NC(=O)c5cccnc5)cc43)ccc2C1=O [Compound I-347] | > 20 | > 20 | > 20 | > 20 | > 50 | 6
CN1CCc2cc(N3CCn4nc(NC(=O)c5ccco5)cc43)ccc2C1=O [Compound I-358] | > 20 | > 20 | > 20 | > 20 | > 50 | 
